Results as given in PMC8399180, “Bioactive Polyketide and Diketopiperazine Derivatives from the Mangrove-Sediment-Derived Fungus Aspergillus sp. SCSIO41407” (Molecules, 2021).
In brackets after ≈: the same amount, converted by molar mass.

How the values were obtained:
[1] = biological target: acetylcholinesterase (AChE) (Homo sapiens, UniProt P22303); test: AChE inhibitory activity (modified Ellman method); assay type: biochemical; conditions: 0.1 U/mL AChE, pH 8.0, 30 °C; read-out: AChE inhibition IC50
Chain of acetylcholinesterase (AChE) (P22303 32-614, species assumed): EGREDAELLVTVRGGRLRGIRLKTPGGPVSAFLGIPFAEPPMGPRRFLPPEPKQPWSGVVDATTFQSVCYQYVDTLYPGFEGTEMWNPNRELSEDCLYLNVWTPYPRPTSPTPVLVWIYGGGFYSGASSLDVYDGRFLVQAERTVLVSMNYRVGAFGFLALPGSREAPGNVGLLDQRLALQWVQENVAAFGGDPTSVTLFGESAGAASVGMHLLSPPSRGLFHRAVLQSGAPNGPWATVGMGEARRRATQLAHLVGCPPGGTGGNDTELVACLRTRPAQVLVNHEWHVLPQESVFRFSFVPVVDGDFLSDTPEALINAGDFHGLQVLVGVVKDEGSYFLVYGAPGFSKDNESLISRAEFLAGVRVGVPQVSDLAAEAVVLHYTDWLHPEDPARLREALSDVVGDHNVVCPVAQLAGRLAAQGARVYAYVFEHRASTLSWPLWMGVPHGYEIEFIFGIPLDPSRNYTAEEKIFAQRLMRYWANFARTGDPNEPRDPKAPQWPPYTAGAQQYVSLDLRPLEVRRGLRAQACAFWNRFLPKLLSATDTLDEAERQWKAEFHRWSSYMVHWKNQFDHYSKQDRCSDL
Procedure: AChE inhibitory activity was evaluated in vitro according to the modified Ellman method. Briefly, 0.1 U/mL AChE solution was prepared by dissolving in phosphate buffer (pH 8.0). The test sample and enzyme buffer were mixed in 96-well plates and incubated for 20 min at 30 °C. Then, 5,5′-dithiobis (2-nitrobenzoic acid) and acetylthiocholine iodide were added, and the enzyme reaction was allowed to proceed for 30 min at 30 °C. AChE activity was determined by measuring the degradation of acetylthiocholine iodide to thiocholine and acetic acid at 405 nm using a microplate reader.

[2] = tested on: methicillin-resistant Staphylococcus aureus (MRSA); test: Antibacterial activity against MRSA (broth microdilution); assay type: cell-based
Procedure: The cytotoxicity of 1–8 and 10–15 against the A549 cell line was preliminarily evaluated via the MTT method as reported in our previous study, and the antibacterial activities of 1–15 against six bacterial strains, Acinetobacter baumannii (ATCC 19606), Staphylococcus aureus (ATCC 29213), Enterococcus faecalis (ATCC 29212), Klebsiella pneumoniae (ATCC 13883), MRSA, and Escherichia coli (ATCC 25922), were evaluated using a modification of the broth microdilution method.

[3] = tested on: LPS-induced NF-κB activation in RAW264.7 cells; test: Inhibition of LPS-induced NF-κB activation in RAW264.7 cells (luciferase reporter gene assay); assay type: cell-based; conditions: for IC50: Mus musculus, luciferase reporter; for Inhibitory activity against LPS-induced NF-κB activation: compounds at 10 μM, 5 μg/mL LPS for 8 h
Procedure: The inhibitory activities of LPS-induced NF-κB activation in RAW264.7 cells was evaluated as detected by luciferase reporter gene assay as described previously. In brief, the RAW264.7 cells stably transfected with a luciferase reporter gene were plated in 96-well plates and then pretreated with testd compounds (10 μM) and BAY11-7082 (NF-κB inhibitor as positive control, 5 μM, Sigma-Aldrich) for 30 min, followed by 5 μg/mL LPS stimulation for 8 h. Cells were harvested, and luciferase activities of the triplicate tests were measured using the luciferase assay system (Promega, Madison, WI, USA).

[4] = tested on: RANKL-induced osteoclast differentiation in bone marrow macrophages cells (BMMCs); test: RANKL-induced osteoclast differentiation in BMMCs (TRAP staining); assay type: cell-based; conditions: 5 μM, 3 days, TRAP-positive multinucleated cells
Procedure: Then, the cells were fixed and stained for TRAP activity and the images were photographed using an inverted microscope (Nikon, Tokyo, Japan). Data are expressed as the mean ± SD and analyzed using GraphPad Prism 7.0 software (GraphPad, San Diego, CA, USA). Statistical differences among groups were performed using one-way analysis of variance with a Bonferroni post-hoc test. A p-value of < 0.05 was considered statistically significant.

[5] = Cytotoxicity against A549 cell line (MTT method); assay type: cell-based; conditions: human, A549 cells, read-out: Cytotoxic Activities A549 (IC50)

Molecule	IC50 [1]	Inhibitory activity against LPS-induced NF-κB activation [3]	other results
CCC/C=C/C=C/c1c(O)cc(CC=C(C)C)c(O)c1C=O [Compound 6, dihydroauroglaucin]	18.6 µM	–	–
Gentamycin [reference compound]	–	–	Antibacterial Activities MRSA (MIC, μM) [2]: 1.4 µM
Cc1cc(=O)c2c(O)c(C)c(O)cc2o1 [Compound 2, eugenitol]	–	–	MIC ([2]; Staphylococcus aureus, read-out: Antibacterial Activities MRSA (MIC)): 485 µM (≈ 100 µg/mL)
C=CC(C)(C)c1[nH]c2ccccc2c1/C=C1\NC(=O)C(C)(OC)NC1=O (stereo not drawn) [Compound 11, variecolorin H]	–	obvious inhibitory activities	IC50 [3]: 19.2 µM; Effect on RANKL-induced osteoclast differentiation [4]: suppressed RANKL-induced osteoclast differentiation
CCCCCCCc1c(O)cc(CC=C(C)C)c(O)c1C=O [Compound 3, flavoglaucin]	23.9 µM	–	IC50 [5]: 22.2 µM
C/C=C/C=C/CCc1c(O)cc(CC=C(C)C)c(O)c1C=O [Compound 4, isodihydroauroglaucin]	490 µM	–	–
CCCCC/C=C/c1c(O)cc(CC=C(C)C)c(O)c1C=O [Compound 5, tetrahydroauroglaucin]	39.9 µM	–	–
C=CC(C)(C)c1[nH]c2ccccc2c1/C=C1\NC(=O)C(=O)NC1=O [Compound 10, neoechinulin E]	–	obvious inhibitory activities	–
C/C=C/C(=O)Cc1cc(O)c(C)c(O)c1C=O [Compound 1, (E)-2,4-dihydroxy-3-methyl-6-(2-oxopent-3-en-1-yl) benzaldehyde]	–	obvious inhibitory activities	–
C=CC(C)(C)c1[nH]c2ccccc2c1/C=c1\[nH]c(=O)c(=C)[nH]c1=O [Compound 14, neoechinulin B]	–	obvious inhibitory activities	IC50 [3]: 8.7 µM; Effect on RANKL-induced osteoclast differentiation [4]: suppressed RANKL-induced osteoclast differentiation
